Data reported in patent US20190374590A1, “USE OF CORDYCEPS MILITARIS EXTRACT FOR TREATMENT OF RENAL DISEASE” (Nan Pao Resins Chemical Co., Ltd., priority 2018, published 2019).

Experiments:
[1] = test system: nephrin protein level in AB8/13 human podocytes; test: Western blotting of nephrin protein level in differentiated AB8/13 human podocytes; format: cell-based; settings: FIG. 1; substance alone, compared to dimethyl sulfoxide; 6 days incubation
Protocol: (§1) Firstly, AB8/13 human podocytes were incubated in a 33[…] incubator containing 5% carbon dioxide until they grew to a confluence of 80%. The cells were transferred to a 37.5[…] incubator containing 5% carbon dioxide to be incubated for 14 days so that the cells were differentiated. After which, the differentiated cells were incubated with culture medium containing various substances for 6 days. Finally, total protein of the differentiated cells treated with various substances was extracted for Western blotting assay.
(§2) As stated in Diabetes, 2011 Jun; 60(6): 1779-1788, transforming growth factor-β1 (TGF-β1) is greatly expressed in the renal tissue of a diabetic nephropathy patient. This paper further has reported that transforming growth factor-β1 can dedifferentiate differentiated podocytes and induce the disappearance of pseudopods. As stated in Cell Tissue Res. 2012 Jan; 347(1): 141-54, transforming growth factor-β1 participates in renal fibrosis, renal parenchyma degeneration and loss of function associated with chronic kidney disease. For the above reasons, podocytes treated with transforming growth factor-β1 can be used as a cell culture model for renal disease.

[2] = test system: a-smooth muscle actin protein level in AB8/13 human podocytes; test: Western blotting of α-smooth muscle actin protein level in differentiated AB8/13 human podocytes; format: cell-based; settings: FIG. 2; substance alone (without TGF-β1), compared to dimethyl sulfoxide; 6 days incubation
Protocol: as §1, §2

transforming growth factor-β1
nephrin protein level [1]: downregulate
a-smooth muscle actin protein level [2]: upregulate
